{"source": "paper PMC6656724", "about": "(Communications Biology, 2019)", "key": {"[1]": {"tested_on": "HTT93Q flies (Drosophila melanogaster model of HD)", "test": "Pseudopupil assay in Drosophila model of Huntington's disease", "assay_type": "in vivo", "text": "To test the therapeutic efficacy of 1, we next employed a widely-used Drosophila melanogaster model of the inherited neurodegenerative disorder Huntington’s disease (HD)[30], which features pan-neuronal expression of a mutant huntingtin exon 1 fragment (HTT93Q). We have previously shown that several KMO inhibitors, including UPF 648 and Ro 61-8048, are neuroprotective in this Drosophila model. We thus tested the ability of 1 to ameliorate loss of photoreceptor neurons in the fly eye (rhabdomeres) using the pseudopupil assay. […] Although the efficacy of 1 may not be solely due to KMO inhibition in the fly, we have previously observed similar levels of neuroprotection with other KMO inhibitors.\nFlies were kept on standard maize food at 25 °C with a 12:12 light/dark cycle. HTT93Q exon 1 expressing flies were generated by crossing female virgins carrying the UASHTT93Qexon1 transgene[30] (a gift of Larry Marsh and Leslie Thompson, University of California, Irvine) to males of elavGAL4 [c155] driver line, obtained from the Bloomington Drosophila Stock Center. For the drug feeding experiments, inhibitor 1 was dissolved in dimethylsulfoxide (DMSO) and added to maize media at the experimental concentrations. […] At day 7, rhabdomeres were scored as previously described. […] Rhabdomeres were examined using a Nikon Optiphot-2 light microscope, with ~ 80 ommatidia scored per fly."}, "[2]": {"tested_on": "MDR1 MDCK cell lines", "test": "in vitro", "assay_type": "in vitro ADME, canine", "conditions": "MDR1 MDCK; listed as Inhibitor 1"}, "[3]": {"tested_on": "wild type MDCK cell lines", "test": "in vitro", "assay_type": "in vitro ADME, canine", "conditions": "wild type MDCK; listed as Inhibitor 1"}, "[4]": {"target": "T1, PfKMO (Pseudomonas fluorescens, UniProt Q84HF5, C252S/C461S)", "T1 construct": "made in house; host or cells: E. coli BL21 (DE3)", "T1 sequence (Q84HF5 whole entry C252S/C461S)": "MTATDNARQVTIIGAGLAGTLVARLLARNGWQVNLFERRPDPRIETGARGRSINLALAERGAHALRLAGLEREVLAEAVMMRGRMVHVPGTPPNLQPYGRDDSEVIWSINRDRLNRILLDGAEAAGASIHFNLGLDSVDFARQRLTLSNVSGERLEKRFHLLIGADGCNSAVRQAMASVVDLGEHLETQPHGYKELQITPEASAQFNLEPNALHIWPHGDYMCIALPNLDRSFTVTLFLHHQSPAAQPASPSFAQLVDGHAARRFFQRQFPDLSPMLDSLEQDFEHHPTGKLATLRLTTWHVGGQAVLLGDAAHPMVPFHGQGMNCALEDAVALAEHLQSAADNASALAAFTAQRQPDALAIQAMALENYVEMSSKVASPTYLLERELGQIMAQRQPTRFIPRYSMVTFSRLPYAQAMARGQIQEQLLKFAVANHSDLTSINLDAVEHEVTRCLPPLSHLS", "test": "Hydrogen peroxide production, o-dianisidine / horseradish peroxidase assay", "assay_type": "biochemical", "conditions": "presence and absence of L-Kyn", "protocol": "H2O2 production rates from PfKMO inhibitor complexes were performed using a horseradish peroxidase (HRP) assay. NADPH consumption rate was measured in the presence and absence of an excess of KMO inhibitors (400 μM). For determination of H2O2 production rates, PfKMO (0.1 μM) was incubated with 100 μM NADPH, 200 μM L-KYN, 400 μM o-dianisidine and ∼5 units HRP in the presence and absence of excess KMO inhibitors. The rate of oxidation of o-dianisidine by H2O2, catalysed by HRP, was monitored at 440 nm (Δε 440 nm = 11.3 mM^−1 cm^−1). To eliminate the L-Kyn competition binding effect, the H2O2 production rates of KMO inhibitors were also measured without L-Kyn with the same method."}, "[5]": {"test": "Plasma protein binding (equilibrium dialysis)", "assay_type": "in vitro ADME", "conditions": "female, CD1, mouse, read-out: Fraction unbound (blood)", "protocol": "for 1 minute and then centrifuged at 3000 rpm in 96-well blocks for 15 minutes (Allegra X12-R, Beckman Coulter, USA). All samples were analysed by means of UPLC/MS/MS on a Xevo TQs micro Mass Spectrometer (Waters Corporation, USA).\nThe unbound fraction was determined as the ratio of the peak area in artificial CSF to that in brain, with correction for dilution factor according to equation (5)21, […]\n((1/f ! ,!\"\"!#$%& ) − 1) + 1/D where D = dilution factor in brain homogenate and fu,apparent is the measured free fraction of diluted brain homogenate.\n3.9 Plasma protein binding\nIn brief, a 96 well equilibrium dialysis apparatus was used to determine the free fraction in plasma for inhibitor 1 (HT Dialysis LLC, Gales Ferry, CT). Membranes (12-14 kDA cut-off) were conditioned in deionised water for 60 minutes, followed by conditioning in 80:20 deionised water:ethanol for 20 minutes, and then rinsed in isotonic buffer before use. Female CD1 mouse plasma was removed from the freezer and allowed to thaw on the day of experiment. […] All samples were analysed by UPLC-MS/MS on a Xevo TQs micro Mass Spectrometer (Waters\nCorporation, USA). The unbound fraction was determined as the ratio of the peak area in buffer to that in plasma."}}, "data": [{"smiles": "Cc1cc2c(c(C)c1Cl)N(CC(=O)O)C(=O)CO2", "note": "[compound 1, (6-chloro-5,7-dimethyl-3-oxo-2,3-dihydro-4H-1,4-benzoxazin-4-yl) acetic acid]", "values": [{"measurement": "Neurodegeneration prevented", "setting": "[1]; HD flies, 100 μM, 7 days", "value": "~ 57%"}, {"measurement": "Reduction in neuron loss (rhabdomeres)", "setting": "[1]; HTT93Q flies, 10 μM or 100 μM for 7 days, vs untreated or DMSO", "value": "significant dose-dependent reduction"}, {"measurement": "Papp A>B Mean", "setting": "[2]", "value": "~ 15 x 10-6 cm/sec"}, {"measurement": "Papp A>B Mean", "setting": "[3]", "value": "~ 15 x 10-6 cm/sec"}, {"measurement": "H2O2 production", "setting": "[4]", "value": "not detected"}, {"measurement": "fraction unbound at 5 h, 10 ug/mL", "setting": "[5]", "value": 0.04}]}]}
